Experimental data taken from publication PMC7948515 (ACS chemical neuroscience, 2020).
pIC50: −log10 of the molar value.

Biological target: T1, horse spleen apoferritin (HSAF) (Equus caballus, UniProt P02791)
T1 sequence (P02791 2-175): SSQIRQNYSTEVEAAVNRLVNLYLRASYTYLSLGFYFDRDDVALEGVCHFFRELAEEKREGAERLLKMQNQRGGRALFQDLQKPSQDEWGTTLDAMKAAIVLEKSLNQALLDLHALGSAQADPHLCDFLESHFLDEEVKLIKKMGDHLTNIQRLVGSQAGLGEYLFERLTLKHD
Assay: 1-AMA fluorescence displacement
Type: binding

| SMILES | pIC50 |
| --- | --- |
| CC(C)c1cccc(C2(C(F)(F)F)N=N2)c1F [compound 1, 3-(2-fluoro-3-isopropylphenyl)-3-(trifluoromethyl)-3H-diazirine] | 4.77 |
| CC(C)c1cccc(C(C)C)c1F [fropofol] | 4.96 |
